Measured values from PubChem BioAssay AID2060492 (Molecular Pharmacology Branch, DTP, NCI, 2025).

Test system: 695427-040-R-J1-PDC complex spheroids, viability percent T/C
Assay: Anticancer human tumor 695427-040-R-J1-PDC patient-derived colon adenocarcinoma cell line growth inhibition [GQUAD]
Details: for IC50: curve of first compound; for viability, T/C: stronger effect = lower value
Method in brief: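 Multi-cell-type spheroids of tumor cells with HUVEC and mesenchymal stem cells, treated with drug combinations. Concentrations descend in half-log steps from near clinical Cmax, or from 10 microM where Cmax is unknown; viability read-out.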
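Further: spheroids exposed to compounds for seven days before readout.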

CC(C)(O)C1CCC(Nc2ccc3ncc(-c4cccc(C(F)(F)F)c4)n3n2)CC1 (configuration not stated) + Cc1cnc(CNC(=O)c2c(=O)c3ccc(N4CCCN(C)CC4)nc3n3c2sc2ccccc23)cn1
IC50 (second compound 0.0316 µM): 1.11 µM | IC50 (second compound 0.1 µM): 0.848 µM | IC50 (second compound 0.316 µM): 1.07 µM | IC50 (second compound 1 µM): 0.324 µM | IC50 (second compound 3.16 µM): < 0.0316 µM | IC50 (second compound 10 µM): < 0.0316 µM | viability, T/C (second compound 0.0316 µM, first compound 0.0316 µM): 82.1% | viability, T/C (second compound 0.0316 µM, first compound 0.1 µM): 77.6% | viability, T/C (second compound 0.0316 µM, first compound 0.316 µM): 73.5% | viability, T/C (second compound 0.0316 µM, first compound 1 µM): 54.2% | viability, T/C (second compound 0.0316 µM, first compound 3.16 µM): 8.38% | viability, T/C (second compound 0.0316 µM, first compound 10 µM): 11.3% | viability, T/C (second compound 0.1 µM, first compound 0.0316 µM): 86.5% | viability, T/C (second compound 0.1 µM, first compound 0.1 µM): 61.3% | viability, T/C (second compound 0.1 µM, first compound 0.316 µM): 78.2% | viability, T/C (second compound 0.1 µM, first compound 1 µM): 45.8% | viability, T/C (second compound 0.1 µM, first compound 3.16 µM): 12.6% | viability, T/C (second compound 0.1 µM, first compound 10 µM): 11.2% | viability, T/C (second compound 0.316 µM, first compound 0.0316 µM): 75.2% | viability, T/C (second compound 0.316 µM, first compound 0.1 µM): 52.5% | viability, T/C (second compound 0.316 µM, first compound 0.316 µM): 62.6% | viability, T/C (second compound 0.316 µM, first compound 1 µM): 52.5% | viability, T/C (second compound 0.316 µM, first compound 3.16 µM): 8.9% | viability, T/C (second compound 0.316 µM, first compound 10 µM): 11.4% | viability, T/C (second compound 1 µM, first compound 0.0316 µM): 67.3% | viability, T/C (second compound 1 µM, first compound 0.1 µM): 59.8% | viability, T/C (second compound 1 µM, first compound 0.316 µM): 46.9% | viability, T/C (second compound 1 µM, first compound 1 µM): 34.7% | viability, T/C (second compound 1 µM, first compound 3.16 µM): 1.37% | viability, T/C (second compound 1 µM, first compound 10 µM): 4.04% | viability, T/C (second compound 3.16 µM, first compound 0.0316 µM): 44.2% | viability, T/C (second compound 3.16 µM, first compound 0.1 µM): 40.6% | viability, T/C (second compound 3.16 µM, first compound 0.316 µM): 50.6% | viability, T/C (second compound 3.16 µM, first compound 1 µM): 17.7% | viability, T/C (second compound 3.16 µM, first compound 3.16 µM): 0.11% | viability, T/C (second compound 3.16 µM, first compound 10 µM): 0.15% | viability, T/C (second compound 10 µM, first compound 0.0316 µM): 24.7% | viability, T/C (second compound 10 µM, first compound 0.1 µM): 21.9% | viability, T/C (second compound 10 µM, first compound 0.316 µM): 12.1% | viability, T/C (second compound 10 µM, first compound 1 µM): 0.26% | viability, T/C (second compound 10 µM, first compound 3.16 µM): 0.2% | viability, T/C (second compound 10 µM, first compound 10 µM): 0.19%
